Assay results taken from patent US20110059226A1, “METHOD FOR LOADING A MOLECULE INTO A POROUS SUBSTRATE” (priority 2009, published 2011).

Tests used:
Type in all cases: physicochemical
[1] = Loading of Ibuprofen into mesoporous silica (MCM-41) from liquid carbon dioxide, adsorbed amount measured by TGA; details: for Maximum loaded amount of Ibuprofen in mesoporous silica: pure CO2 (I), 20° C., 55±2 bar
Text: The mesoporous particles were placed in a bag (fabric of polypropene, PP 3333, permeability 105 DIN, Derma AB, Sweden), which was permeable for the solvent and dissolved Ibuprofen molecules but kept the mesoporous particles in one place in the reactor (see below). The amount of mesoporous particles was 0.1 g in all experiments, while the amount of Ibuprofen was varied for different loading experiments. The particles in the bag and Ibuprofen crystals (thoroughly ground in a mortar before use) were placed in a glass beaker (400 ml), which was placed in an in-house built stainless steel reactor (1.7 L) with two sapphire glass windows. The reactor was first pressurized with carbon dioxide and thereafter 200 ml CO2 (I) or CO2 (I)+5 mol-% cosolvent was introduced into the glass beaker at 20° C. and 55±2 bar. […] After the loading period (15 minutes to 18 hours), the reactor was depressurized and the bag containing the mesoporous particles with Ibuprofen was retrieved. The samples were characterized with TGA using a TGA 7 instrument (Perkin Elmer Inc., USA). The temperature program used consisted of an initial part with a heating rate of 20° C./min from 20° C. to 95° C., followed by an isothermal pause for 60 minutes at 95° C., and finally heating from 95° C. up to 800° C. at a heating rate of 2° C./min. All TGA measurements were performed under 20 ml/min flow of N2 gas. […] The loading time and concentration of Ibuprofen in the CO2 (I) was varied in the experiments and each experiment is represented by one point in the graph in FIG. 1.

[2] = Release of Ibuprofen from mesoporous silica into water; details: within one minute of the mesoporous silica being added to water
Text: Fifty percent of the Ibuprofen is released into water within one minute of the mesoporous silica being added to water. This is desirable as a quicker release for an analgesic drug will result in faster relief for the individual taking the analgesic drug.

[3] = Solubility limit of Ibuprofen in CO2 (I) and CO2 (I) with 5 mol % cosolvent, by visual inspection; details: room temperature, 55±2 bar, 9 hours
Protocol: The solubility of Ibuprofen in CO2 (I) and CO2 (I) with 5 mol % of cosolvent was determined by visual inspection of sample mixtures of the solvent(s) and Ibuprofen at room temperature and 55±2 bar, and the solubility limit was considered to be reached when particles of Ibuprofen were visible.

Maximum adsorbed amount of Ibuprofen in the mesoporous particles ([1]; 0.34 wt-% Ibuprofen in CO2 (I) + acetone (5 mol-%)): approximately 50 mg Ibuprofen/g SiO2 | Maximum adsorbed amount of Ibuprofen in the mesoporous particles ([1]; 0.34 wt-% Ibuprofen in CO2 (I) + cyclohexane (5 mol-%)): approximately 200 mg Ibuprofen/g SiO2 | Maximum adsorbed amount of Ibuprofen in the mesoporous particles ([1]; 0.34 wt-% Ibuprofen in CO2 (I) + methanol (5 mol-%)): approximately 50 mg Ibuprofen/g SiO2 | Maximum loaded amount of Ibuprofen in mesoporous silica ([1]; Ibuprofen concentration below the solubility limit (0.04 wt-%)): much lower loading | Maximum loaded amount of Ibuprofen in mesoporous silica ([1]; solution saturated with Ibuprofen (0.34 or 0.90 wt-% nominal), 7 to 12 hours): ~300 mg Ibuprofen/g SiO2 | Ibuprofen released into water from mesoporous silica [2]: Fifty | Solubility limit ([3]; Solvent CO2 (I) + acetone (5 mol %)): 1.5-2.0 wt-% | Solubility limit ([3]; Solvent CO2 (I) + cyclohexane (5 mol %)): 1.0-1.5 wt-% | Solubility limit ([3]; Solvent CO2 (I) + methanol (5 mol %)): >2.0 wt-% | Solubility limit ([3]; Solvent CO2 (I)): 0.20-0.25 wt-%
Compound: CC(C)Cc1ccc(C(C)C(=O)O)cc1 (stereo not shown) [Ibuprofen]
